According to patent US20090270394A1, “CYCLYLAMINE DERIVATIVES AS CALCIUM CHANNEL BLOCKERS” (priority 2008, published 2009):

Molecular target: T1, Human Cav2.2 channels (Homo sapiens, UniProt Q00975)
T1 construct: expressed in transfected cells
Assay: Fluorescent assay for Cav2.2 channels using potassium depolarization to initiate channel opening
Type: cell-based
Details: for inhibition at 10 µM: 10 μM compound, read-out: Cav 2.2 Activity % Inh at 10 μM; for inhibition at 30 µM: 30 μM compound, read-out: Cav 2.2 Activity % Inh at 30 μM; for IC50: 30 mM K (block of open and inactivated channels), read-out: Cav 2.2 Activity IC50 at 30 mM K
Procedure, shortened: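 HEK293 cells stably expressing human Cav2.2 with alpha2-delta and beta subunits plus Kir2.3, dye-loaded, then held 30 min at 25° C. in 4, 12, 25 or 30 mM K+ pre-polarization buffer with compound.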

T1 sequence (Q00975 whole entry): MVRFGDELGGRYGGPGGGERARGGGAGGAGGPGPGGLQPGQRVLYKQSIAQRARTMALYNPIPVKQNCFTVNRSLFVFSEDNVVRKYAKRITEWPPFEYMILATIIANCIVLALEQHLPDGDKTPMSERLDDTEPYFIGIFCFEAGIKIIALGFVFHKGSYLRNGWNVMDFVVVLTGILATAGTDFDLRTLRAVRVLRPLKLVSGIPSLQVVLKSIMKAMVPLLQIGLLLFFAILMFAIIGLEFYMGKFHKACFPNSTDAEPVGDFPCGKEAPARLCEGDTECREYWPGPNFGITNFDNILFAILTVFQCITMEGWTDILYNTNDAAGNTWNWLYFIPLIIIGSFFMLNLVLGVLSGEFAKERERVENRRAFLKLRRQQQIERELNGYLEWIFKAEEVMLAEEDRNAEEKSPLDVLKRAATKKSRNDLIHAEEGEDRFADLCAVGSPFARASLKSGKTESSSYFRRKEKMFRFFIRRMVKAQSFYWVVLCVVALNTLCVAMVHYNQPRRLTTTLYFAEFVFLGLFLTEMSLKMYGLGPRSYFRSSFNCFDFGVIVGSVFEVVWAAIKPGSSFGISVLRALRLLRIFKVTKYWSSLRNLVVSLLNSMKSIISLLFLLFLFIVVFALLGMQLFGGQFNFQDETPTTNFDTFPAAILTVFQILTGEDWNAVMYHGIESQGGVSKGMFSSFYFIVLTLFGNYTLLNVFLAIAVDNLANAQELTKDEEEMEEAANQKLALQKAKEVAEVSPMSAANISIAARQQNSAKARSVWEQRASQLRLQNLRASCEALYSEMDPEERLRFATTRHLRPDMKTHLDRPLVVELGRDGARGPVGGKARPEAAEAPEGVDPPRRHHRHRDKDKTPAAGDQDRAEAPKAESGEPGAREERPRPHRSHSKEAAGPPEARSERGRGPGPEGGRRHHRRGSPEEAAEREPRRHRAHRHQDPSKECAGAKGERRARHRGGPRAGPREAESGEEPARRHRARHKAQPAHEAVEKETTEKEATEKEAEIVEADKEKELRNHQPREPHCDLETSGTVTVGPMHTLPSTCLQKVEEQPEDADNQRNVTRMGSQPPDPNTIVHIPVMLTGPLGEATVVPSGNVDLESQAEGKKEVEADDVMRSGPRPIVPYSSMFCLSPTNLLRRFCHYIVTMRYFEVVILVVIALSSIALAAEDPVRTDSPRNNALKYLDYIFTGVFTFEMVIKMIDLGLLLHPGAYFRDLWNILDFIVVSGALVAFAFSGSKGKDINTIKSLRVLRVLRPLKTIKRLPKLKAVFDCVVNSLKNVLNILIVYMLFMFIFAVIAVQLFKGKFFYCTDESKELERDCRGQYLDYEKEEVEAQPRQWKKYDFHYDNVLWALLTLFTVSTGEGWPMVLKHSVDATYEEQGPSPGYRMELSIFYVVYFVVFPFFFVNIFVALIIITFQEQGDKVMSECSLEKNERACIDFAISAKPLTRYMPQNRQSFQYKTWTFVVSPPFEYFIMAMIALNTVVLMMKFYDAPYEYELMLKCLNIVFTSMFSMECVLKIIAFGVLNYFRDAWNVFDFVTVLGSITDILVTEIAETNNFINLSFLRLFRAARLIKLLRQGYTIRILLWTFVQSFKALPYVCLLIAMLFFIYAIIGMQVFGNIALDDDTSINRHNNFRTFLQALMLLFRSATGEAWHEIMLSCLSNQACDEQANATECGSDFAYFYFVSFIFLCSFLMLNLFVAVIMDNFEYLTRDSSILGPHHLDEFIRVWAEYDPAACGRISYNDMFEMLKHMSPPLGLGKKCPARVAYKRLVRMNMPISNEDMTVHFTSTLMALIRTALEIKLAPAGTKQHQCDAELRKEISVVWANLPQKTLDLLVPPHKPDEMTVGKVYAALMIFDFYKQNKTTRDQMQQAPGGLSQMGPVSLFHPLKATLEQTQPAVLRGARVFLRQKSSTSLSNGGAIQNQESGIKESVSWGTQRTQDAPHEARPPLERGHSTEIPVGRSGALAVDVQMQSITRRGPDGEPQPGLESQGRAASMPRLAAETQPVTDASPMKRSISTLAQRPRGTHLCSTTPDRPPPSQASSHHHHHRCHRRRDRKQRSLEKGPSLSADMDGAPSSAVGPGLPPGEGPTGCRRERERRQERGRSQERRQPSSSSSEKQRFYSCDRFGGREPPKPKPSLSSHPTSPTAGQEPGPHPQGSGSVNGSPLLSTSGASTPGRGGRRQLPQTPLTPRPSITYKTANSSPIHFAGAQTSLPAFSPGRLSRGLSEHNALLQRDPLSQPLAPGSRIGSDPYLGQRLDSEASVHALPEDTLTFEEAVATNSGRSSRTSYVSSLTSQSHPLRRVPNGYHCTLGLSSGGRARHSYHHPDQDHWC
T1 sequence (P54289 25-1103 partner): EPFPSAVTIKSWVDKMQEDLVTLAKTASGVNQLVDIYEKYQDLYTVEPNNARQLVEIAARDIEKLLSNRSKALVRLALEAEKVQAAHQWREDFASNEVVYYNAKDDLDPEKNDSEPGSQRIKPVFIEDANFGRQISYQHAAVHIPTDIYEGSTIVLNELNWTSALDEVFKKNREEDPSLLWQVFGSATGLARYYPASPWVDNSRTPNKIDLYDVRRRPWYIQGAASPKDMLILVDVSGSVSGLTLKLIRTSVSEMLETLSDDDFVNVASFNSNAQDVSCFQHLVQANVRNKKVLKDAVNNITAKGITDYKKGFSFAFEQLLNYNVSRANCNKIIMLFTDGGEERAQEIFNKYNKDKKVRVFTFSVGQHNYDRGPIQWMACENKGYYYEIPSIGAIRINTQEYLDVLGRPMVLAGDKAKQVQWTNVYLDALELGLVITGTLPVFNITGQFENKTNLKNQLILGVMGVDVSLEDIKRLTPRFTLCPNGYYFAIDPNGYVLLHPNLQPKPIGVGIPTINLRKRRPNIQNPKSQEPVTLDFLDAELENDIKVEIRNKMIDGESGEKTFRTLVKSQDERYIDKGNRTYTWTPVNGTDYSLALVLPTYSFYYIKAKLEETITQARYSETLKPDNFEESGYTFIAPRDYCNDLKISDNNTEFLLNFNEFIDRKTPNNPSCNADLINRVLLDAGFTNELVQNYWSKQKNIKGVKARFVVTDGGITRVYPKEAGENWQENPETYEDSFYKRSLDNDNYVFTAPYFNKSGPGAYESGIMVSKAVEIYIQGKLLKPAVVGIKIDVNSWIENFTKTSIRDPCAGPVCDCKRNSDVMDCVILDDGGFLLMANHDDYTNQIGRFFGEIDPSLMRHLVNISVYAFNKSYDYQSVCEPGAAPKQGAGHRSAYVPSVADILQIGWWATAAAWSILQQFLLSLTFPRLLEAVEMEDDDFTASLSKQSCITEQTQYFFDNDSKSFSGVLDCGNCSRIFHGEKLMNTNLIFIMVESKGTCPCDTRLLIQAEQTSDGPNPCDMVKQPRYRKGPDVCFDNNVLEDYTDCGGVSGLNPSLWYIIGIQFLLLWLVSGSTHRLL
T1 sequence (P54284 whole entry partner): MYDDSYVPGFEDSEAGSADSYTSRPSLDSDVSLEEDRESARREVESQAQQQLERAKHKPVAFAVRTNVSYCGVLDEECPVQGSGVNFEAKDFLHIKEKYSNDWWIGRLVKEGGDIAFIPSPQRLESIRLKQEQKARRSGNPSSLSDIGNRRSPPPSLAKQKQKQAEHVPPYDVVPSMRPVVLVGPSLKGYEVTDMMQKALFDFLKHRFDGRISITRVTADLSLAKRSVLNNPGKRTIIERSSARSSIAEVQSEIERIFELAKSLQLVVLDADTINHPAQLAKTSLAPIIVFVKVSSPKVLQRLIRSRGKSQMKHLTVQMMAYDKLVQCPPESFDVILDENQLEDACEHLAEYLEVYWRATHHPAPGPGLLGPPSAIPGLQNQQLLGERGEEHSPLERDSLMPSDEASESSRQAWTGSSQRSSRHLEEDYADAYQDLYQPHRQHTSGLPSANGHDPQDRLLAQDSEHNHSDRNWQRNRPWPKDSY

Row | inhibition at 10 µM [%] | inhibition at 30 µM [%] | IC50 [nM] | Compound
1 | 95.2 | 97.7 | 124 | COc1c(C(C)(C)C)cc(CNC(=O)C2(NC(=O)c3cccc(C(F)(F)F)c3)CCCCC2)cc1C(C)(C)C [Compound 73, N-(1-(3,5-di-tert-butyl-4-methoxybenzylcarbamoyl)cyclohexyl)-3-(trifluoromethyl)benzamide]
2 | 98.9 | 106 | 55.8 | COc1ccc(C(=O)NC2(C(=O)NCc3cc(C(C)(C)C)c(OC)c(C(C)(C)C)c3)CCCCC2)cc1 [Compound 74, N-(1-(3,5-di-tert-butyl-4-methoxybenzylcarbamoyl)cyclohexyl)-4-methoxybenzamide]
3 | 93.6 | 101 | 545 | CC(C)(C)c1cc(C(=O)NC2(C(=O)Nc3ccncc3)CCCCC2)cc(C(C)(C)C)c1 [Compound 75, 3,5-di-tert-butyl-N-(1-(pyridin-4-ylcarbamoyl)cyclohexyl)benzamide]
4 | 80.5 | 87.8 | – | CC(C)(C)NC(=O)C(C)(C)c1cc(C(=O)NC2(C(=O)NCc3cccc(C(F)(F)F)c3)CCCCC2)cc(C(C)(C)C(=O)NC(C)(C)C)c1 [Compound 76, 2,2′-(5-(1-(3-(trifluoromethyl)benzylcarbamoyl)cyclohexylcarbamoyl)-1,3-phenylene)bis(N-tert-butyl-2-methylpropanamide)]
5 | 48.7 | 66.9 | 574 | CN(C)c1ccc(CNC(=O)C2(NC(=O)c3cc(C(C)(C)C)nc(C(C)(C)C)c3)CCCCC2)cc1 [Compound 77, 2,6-di-tert-butyl-N-(1-(4-(dimethylamino)benzylcarbamoyl)cyclohexyl)isonicotinamide]
6 | 79.5 | 88.6 | 24.5 | Cc1cc(CNC(=O)C2(NC(=O)c3cc(C(C)(C)C)nc(C(C)(C)C)c3)CCCCC2)nn1C [Compound 78, 2,6-di-tert-butyl-N-(1-((1,5-dimethyl-1H-pyrazol-3-yl)methylcarbamoyl)cyclohexyl)isonicotinamide]
7 | 97.8 | 101 | 43.3 | Cc1cc(CNC(=O)C2(NC(=O)c3cc(C(C)(C)C)nc(C(C)(C)C)c3)CCCCC2)no1 [Compound 79, 2,6-di-tert-butyl-N-(1-((5-methylisoxazol-3-yl)methylcarbamoyl)cyclohexyl)isonicotinamide]
8 | 98.4 | 104 | 106 | CC(C)(C)c1cc(C(=O)NC2(C(=O)NCc3nccs3)CCCCC2)cc(C(C)(C)C)n1 [Compound 80, 2,6-di-tert-butyl-N-(1-(thiazol-2-ylmethylcarbamoyl)cyclohexyl)isonicotinamide]
9 | 87.8 | 93.3 | 53.5 | Cc1cnc(CNC(=O)C2(NC(=O)c3cc(C(C)(C)C)nc(C(C)(C)C)c3)CCCCC2)cn1 [Compound 81, 2,6-di-tert-butyl-N-(1-((5-methylpyrazin-2-yl)methylcarbamoyl)cyclohexyl)isonicotinamide]
10 | 92.6 | 101 | 70.9 | COc1c(C(C)(C)C)cc(C(=O)NC2(C(=O)N3CCN(c4ccccc4)CC3)CCCCC2)cc1C(C)(C)C [Compound 82, 3,5-di-tert-butyl-4-methoxy-N-(1-(4-phenylpiperazine-1-carbonyl)cyclohexyl)benzamide]
11 | 97.2 | 100 | 134 | COc1c(C(C)(C)C)cc(C(=O)NC2(C(=O)N3CCN(Cc4ccccc4)CC3)CCCCC2)cc1C(C)(C)C [Compound 83, N-(1-(4-benzylpiperazine-1-carbonyl)cyclohexyl)-3,5-di-tert-butyl-4-methoxybenzamide]
12 | 25.6 | 53.5 | – | COc1c(C(C)(C)C)cc(C(=O)NC2(C(=O)NCc3ccc(N(C)C)cc3)CCCCC2)cc1C(C)(C)C [Compound 84, 3,5-di-tert-butyl-N-(1-(4-(dimethylamino)benzylcarbamoyl)cyclohexyl)-4-methoxybenzamide]
13 | 87.7 | 93.2 | 26.7 | COc1c(C(C)(C)C)cc(C(=O)NC2(C(=O)NCc3cc(C)n(C)n3)CCCCC2)cc1C(C)(C)C [Compound 85, 3,5-di-tert-butyl-N-(1-((1,5-dimethyl-1H-pyrazol-3-yl)methylcarbamoyl)cyclohexyl)-4-methoxybenzamide]
14 | 99.1 | 104 | 9.57 | COc1c(C(C)(C)C)cc(C(=O)NC2(C(=O)NCc3cc(C)on3)CCCCC2)cc1C(C)(C)C [Compound 86, 3,5-di-tert-butyl-4-methoxy-N-(1-((5-methylisoxazol-3-yl)methylcarbamoyl)cyclohexyl)benzamide]
15 | 102 | 104 | 6.04 | COc1c(C(C)(C)C)cc(C(=O)NC2(C(=O)NCc3nccs3)CCCCC2)cc1C(C)(C)C [Compound 87, 3,5-di-tert-butyl-4-methoxy-N-(1-(thiazol-2-ylmethylcarbamoyl)cyclohexyl)benzamide]
16 | 96.3 | 96.7 | 14.2 | COc1c(C(C)(C)C)cc(C(=O)NC2(C(=O)NCc3cnc(C)cn3)CCCCC2)cc1C(C)(C)C [Compound 88, 3,5-di-tert-butyl-4-methoxy-N-(1-((5-methylpyrazin-2-yl)methylcarbamoyl)cyclohexyl)benzamide]

Row | inhibition at 10 µM [%] | inhibition at 30 µM [%] | IC50 [nM] | Compound
17 | 90.8 | 100 | 54.6 | COc1ccc(CNC(=O)C2(NC(=O)c3cc(C(C)(C)C)nc(C(C)(C)C)c3)CCCC2)cc1 [Compound 89, 2,6-di-tert-butyl-N-(1-(4-methoxybenzylcarbamoyl)cyclopentyl)isonicotinamide]
18 | 95.3 | 96.1 | 148 | Cc1cnc(CNC(=O)C2(NC(=O)c3cc(C(C)(C)C)nc(C(C)(C)C)c3)CCCC2)cn1 [Compound 91, 2,6-di-tert-butyl-N-(1-((5-methylpyrazin-2-yl)methylcarbamoyl)cyclopentyl)isonicotinamide]
19 | 89.5 | 92.2 | 225 | CC(C)(C)c1cc(C(=O)NC2(C(=O)N3CCCC3)CCCC2)cc(C(C)(C)C)n1 [Compound 92, 2,6-di-tert-butyl-N-(1-(pyrrolidine-1-carbonyl)cyclopentyl)isonicotinamide]
20 | 83.9 | 85.5 | 856 | CN1CCN(C(=O)C2(NC(=O)c3cc(C(C)(C)C)nc(C(C)(C)C)c3)CCCC2)CC1 [Compound 93, 2,6-di-tert-butyl-N-(1-(4-methylpiperazine-1-carbonyl)cyclopentyl)isonicotinamide]
21 | 96.6 | 87.2 | 329 | CC(C)(C)c1cc(C(=O)NC2(C(=O)N3CCOCC3)CCCC2)cc(C(C)(C)C)n1 [Compound 94, 2,6-di-tert-butyl-N-(1-(morpholine-4-carbonyl)cyclopentyl)isonicotinamide]
22 | 94.6 | 101 | 132 | CC(C)(C)c1cc(C(=O)NC2(C(=O)NCc3ccccc3)CCCC2)cc(C(C)(C)C)n1 [Compound 95, N-(1-(benzylcarbamoyl)cyclopentyl)-2,6-di-tert-butylisonicotinamide]
23 | 77.7 | 82.6 | 161 | COc1c(C(C)(C)C)cc(C(=O)NC2(C(=O)Nc3ccccc3)CCCCC2)cc1C(C)(C)C [Compound 96, 3,5-di-tert-butyl-4-methoxy-N-(1-(phenylcarbamoyl)cyclohexyl)benzamide]
24 | 76 | 90.6 | 1070 | CN1CCC(NC(=O)c2cc(C(C)(C)C)nc(C(C)(C)C)c2)(C(=O)NCc2ccccc2)CC1 [Compound 97, N-(4-(benzylcarbamoyl)-1-methylpiperidin-4-yl)-2,6-di-tert-butylisonicotinamide]
25 | – | – | 248 | CC(C)(C)c1cc(C(=O)NC2(C(=O)N3CCOCC3)CCCCC2)cc(C(C)(C)C)n1 [Compound 98, 2,6-di-tert-butyl-N-(1-(morpholine-4-carbonyl)cyclohexyl)isonicotinamide]
26 | – | – | 700 | CC(C)(C)c1cc(C(=O)NC2(C(=O)NCCCN3CCOCC3)CCCCC2)cc(C(C)(C)C)n1 [Compound 99, 2,6-di-tert-butyl-N-(1-(3-morpholinopropylcarbamoyl)cyclohexyl)isonicotinamide]
27 | – | – | 154 | CC(C)(C)c1cc(C(=O)NC2(C(=O)NCc3ccncc3)CCCCC2)cc(C(C)(C)C)n1 [Compound 100, 2,6-di-tert-butyl-N-(1-(pyridin-4-ylmethylcarbamoyl)cyclohexyl)isonicotinamide]
28 | – | – | 105 | CNC(=O)C1(NC(=O)c2cc(C(C)(C)C)nc(C(C)(C)C)c2)CCCCC1 [Compound 101, 2,6-di-tert-butyl-N-(1-(methylcarbamoyl)cyclohexyl)isonicotinamide]
29 | – | – | 253 | CC(C)(C)c1cc(C(=O)NC2(C(=O)NCCCN3CCOCC3)CCCCC2)cc(C(C)(C)C)c1 [Compound 102, 3,5-di-tert-butyl-N-(1-(3-morpholinopropylcarbamoyl)cyclohexyl)benzamide]
30 | – | – | 65.3 | CC(C)(C)c1cc(C(=O)NC2(C(=O)NCc3cccnc3)CCCCC2)cc(C(C)(C)C)c1 [Compound 103, 3,5-di-tert-butyl-N-(1-(pyridin-3-ylmethylcarbamoyl)cyclohexyl)benzamide]
31 | – | – | 1020 | COc1c(C(C)(C)C)cc(C(=O)NC2(C(=O)N3CCN(C)CC3)CCCCC2)cc1C(C)(C)C [Compound 104, 3,5-di-tert-butyl-4-methoxy-N-(1-(4-methylpiperazine-1-carbonyl)cyclohexyl)benzamide]
